Assays:
[1] = system: AML-08 human LSC engrafted in NSGS mice; experiment: De novo AML PRIMAGRAFT model AML-08: FACS engraftment analysis and serial transplantation; assay type: in vivo, mouse
Protocol: All animal studies were performed in accordance with UCSD and NIH-equivalent ethical guidelines and were approved by the Institutional Animal Care and Use Committee (IACUC protocol # S06015). For all in vivo experiments, animals of both genders were utilized. Three AML PRIMAGRAFT™ models were established by transplanting AML LSC-enriched cell fractions (either CD34-selected or FACS-purified stem or progenitor cell fractions from primary patient samples) into immunocompromised Rag2^−/−γc^−/−[20] or NOD/SCID-IL2RG mice (Jackson Laboratory) constitutively expressing human SCF, GM-CSF and IL-3 (NSGS) (FIGS. 8A-8D). […]
Mice transplanted with 1-2×10^5 CD34^+ AML LSC-enriched fractions or no-transplant controls were screened for human hematopoietic cell engraftment (CD45^+ cells) in peripheral blood by FACS starting at 7-10 weeks post transplant. At 7-28 weeks post-transplant (7-36 weeks old), mice were euthanized, and peripheral blood and single cell suspensions of hematopoietic organs were analyzed for human cell engraftment by FACS. […]
Flow cytometric analysis was performed on single cell suspensions from each hematopoietic tissue essentially as for primary patient samples, and frequencies of total live human CD45^+ cells, and CD45^+CD34^+CD38^− Lin^− (stem) and CD45^+CD34^+CD38^+ Lin^− (progenitor) cells were determined in each tissue. […]

[2] = system: CD34+ cells from normal cord blood; experiment: SL/M2 stromal co-culture with colony and replating assays, cord blood; assay type: cell-based, human; conditions: even at high doses
Protocol: In hypothesis-driven experiments, the splicing modulatory compound 17S-FD-895 was tested to determine efficacy in altering splicing activity in cell lines, and to evaluate effects on AML LSC survival and self-renewal capacity in humanized bone marrow stromal co-cultures and in PRIMAGRAFT™ AML LSC models. Cell culture experiments were performed using 293T and sAML (MOLM-13) cell lines, and SL and M2 bone marrow stromal cell lines. Animal studies were performed using immunocompromised Rag2−/−γc−/−[20] or NOD/SCID-IL2RG mice (Jackson Laboratory, Bar Harbor, Me.). Primary AML and normal control samples were used in in vitro hematopoietic stem and progenitor assays after bone marrow stromal co-culture and treatment with splicing modulatory compounds (FD-895 or 17S-FD-895) or vehicle control (DMSO). Colony formation potential and self-renewal capacity were assessed by counting colony numbers (survival) after two weeks of growth in semi-solid (methylcellulose) media, and subsequent replating capacity (self-renewal) was assessed after transfer to fresh methylcellulose for an additional two weeks of culture. […]

CC[C@H](OC)[C@@H](C)[C@H]1O[C@@H]1[C@@H](O)[C@H](C)/C=C/C=C(\C)[C@H]1OC(=O)C[C@H](O)CC[C@@](C)(O)[C@@H](OC(C)=O)/C=C/[C@@H]1C (stereo in doubt) [Formula 17S-FD-895, 17S-FD-895]
circulating leukemic cells in secondary recipients ([1]; de novo AML model, lower dose): trend towards decreased circulating leukemic cells | decrease in circulating leukemic burden in secondary recipients ([1]; model with high disease burden, serial transplantation, p=0.07): 49% | normal CB samples, survival and self-renewal [2]: unaffected

From patent US10675267B2, “Methods for detection and eradication of myeloid leukemia stem cells” (priority 2015, dated 2020)
